Results taken from ChEMBL document CHEMBL4507278 (2021).

What was measured:
[1] = test system: Tyrosine-protein kinase ABL1 (Homo sapiens), P00519 [Q252H]; details: Compound concentration 1000.0 nM
[2] = target: Cytoplasmic tyrosine-protein kinase BMX (Homo sapiens) (UniProt P51813); details: Compound concentration 1000.0 nM
[3] = target: Calcium/calmodulin-dependent protein kinase kinase 1 (Homo sapiens) (UniProt Q8N5S9); details: Compound concentration 1000.0 nM
[4] = target: Megakaryocyte-associated tyrosine-protein kinase (Homo sapiens) (UniProt P42679); details: Compound concentration 1000.0 nM
[5] = target: Serine/threonine-protein kinase MRCK gamma (Homo sapiens) (UniProt Q6DT37); details: Compound concentration 1000.0 nM
[6] = test system: Epidermal growth factor receptor (Homo sapiens), P00533 [UNDEFINED MUTATION]; details: Compound concentration 1000.0 nM
[7] = target: Mitogen-activated protein kinase 7 (Homo sapiens) (UniProt Q13164); details: Compound concentration 1000.0 nM
[8] = test system: Receptor-type tyrosine-protein kinase FLT3 (Homo sapiens), P36888 [N841I]; details: Compound concentration 1000.0 nM
[9] = target: Receptor-type tyrosine-protein kinase FLT3 (Homo sapiens) (UniProt P36888); details: Compound concentration 1000.0 nM
[10] = target: Tyrosine-protein kinase Fyn (Homo sapiens) (UniProt P06241); details: Compound concentration 1000.0 nM
[11] = target: Beta-adrenergic receptor kinase 1 (Homo sapiens) (UniProt P25098); details: Compound concentration 1000.0 nM
[12] = target: Tyrosine-protein kinase JAK3 (Homo sapiens) (UniProt P52333); details: Compound concentration 1000.0 nM
[13] = target: Leucine-rich repeat serine/threonine-protein kinase 2 (Homo sapiens) (UniProt Q5S007); details: Compound concentration 1000.0 nM
[14] = target: Mitogen-activated protein kinase kinase kinase kinase 2 (Homo sapiens) (UniProt Q12851); details: Compound concentration 1000.0 nM
[15] = target: Dual specificity mitogen-activated protein kinase kinase 3 (Homo sapiens) (UniProt P46734); details: Compound concentration 1000.0 nM
[16] = target: Serine/threonine-protein kinase mTOR (Homo sapiens) (UniProt P42345); details: Compound concentration 1000.0 nM
[17] = target: Serine/threonine-protein kinase Nek10 (Homo sapiens) (UniProt Q6ZWH5); details: Compound concentration 1000.0 nM
[18] = target: Serine/threonine-protein kinase OSR1 (Homo sapiens) (UniProt O95747); details: Compound concentration 1000.0 nM
[19] = target: Cyclin-dependent kinase 18 (Homo sapiens) (UniProt Q07002); details: Compound concentration 1000.0 nM
[20] = target: Cyclin-dependent kinase 15 (Homo sapiens) (UniProt Q96Q40); details: Compound concentration 1000.0 nM
[21] = target: Phosphatidylinositol 3-kinase C2 domain-containing subunit gamma (Homo sapiens) (UniProt O75747); details: Compound concentration 1000.0 nM
[22] = test system: Phosphatidylinositol 4,5-bisphosphate 3-kinase catalytic subunit alpha isoform (Homo sapiens), P42336 [E542K]; details: Compound concentration 1000.0 nM
[23] = test system: Phosphatidylinositol 4,5-bisphosphate 3-kinase catalytic subunit alpha isoform (Homo sapiens), P42336 [Q546K]; details: Compound concentration 1000.0 nM
[24] = target: Serine/threonine-protein kinase N1 (Homo sapiens) (UniProt Q16512); details: Compound concentration 1000.0 nM
[25] = target: Serine/threonine-protein kinase N2 (Homo sapiens) (UniProt Q16513); details: Compound concentration 1000.0 nM
[26] = target: Protein kinase C epsilon type (Homo sapiens) (UniProt Q02156); details: Compound concentration 1000.0 nM
[27] = target: Protein-tyrosine kinase 2-beta (Homo sapiens) (UniProt Q14289); details: Compound concentration 1000.0 nM
[28] = target: Serine/threonine-protein kinase SIK3 (Homo sapiens) (UniProt Q9Y2K2); details: Compound concentration 1000.0 nM
[29] = target: Dual serine/threonine and tyrosine protein kinase (Homo sapiens) (UniProt Q6XUX3); details: Compound concentration 1000.0 nM
[30] = target: Ribosomal protein S6 kinase alpha-2 (Homo sapiens) (UniProt Q15349); details: Compound concentration 1000.0 nM
[31] = target: Serine/threonine-protein kinase 16 (Homo sapiens) (UniProt O75716); details: Compound concentration 1000.0 nM
[32] = target: Serine/threonine-protein kinase TAO2 (Homo sapiens) (UniProt Q9UL54); details: Compound concentration 1000.0 nM
[33] = target: NT-3 growth factor receptor (Homo sapiens) (UniProt Q16288); details: Compound concentration 1000.0 nM
[34] = target: Tyrosine-protein kinase TXK (Homo sapiens) (UniProt P42681); details: Compound concentration 1000.0 nM
[35] = target: Serine/threonine-protein kinase ULK1 (Homo sapiens) (UniProt O75385); details: Compound concentration 1000.0 nM
[36] = target: Wee1-like protein kinase (Homo sapiens) (UniProt P30291); details: Compound concentration 1000.0 nM
[37] = target: 5-hydroxytryptamine receptor 1B (Homo sapiens) (UniProt P28222); details: Compound concentration 10.0 uM
[38] = target: Beta-3 adrenergic receptor (Homo sapiens) (UniProt P13945); details: Compound concentration 10.0 uM

Sequence of Epidermal growth factor receptor (Homo sapiens), P00533 [UNDEFINED MUTATION] (P00533 whole entry, looked up, change not shown): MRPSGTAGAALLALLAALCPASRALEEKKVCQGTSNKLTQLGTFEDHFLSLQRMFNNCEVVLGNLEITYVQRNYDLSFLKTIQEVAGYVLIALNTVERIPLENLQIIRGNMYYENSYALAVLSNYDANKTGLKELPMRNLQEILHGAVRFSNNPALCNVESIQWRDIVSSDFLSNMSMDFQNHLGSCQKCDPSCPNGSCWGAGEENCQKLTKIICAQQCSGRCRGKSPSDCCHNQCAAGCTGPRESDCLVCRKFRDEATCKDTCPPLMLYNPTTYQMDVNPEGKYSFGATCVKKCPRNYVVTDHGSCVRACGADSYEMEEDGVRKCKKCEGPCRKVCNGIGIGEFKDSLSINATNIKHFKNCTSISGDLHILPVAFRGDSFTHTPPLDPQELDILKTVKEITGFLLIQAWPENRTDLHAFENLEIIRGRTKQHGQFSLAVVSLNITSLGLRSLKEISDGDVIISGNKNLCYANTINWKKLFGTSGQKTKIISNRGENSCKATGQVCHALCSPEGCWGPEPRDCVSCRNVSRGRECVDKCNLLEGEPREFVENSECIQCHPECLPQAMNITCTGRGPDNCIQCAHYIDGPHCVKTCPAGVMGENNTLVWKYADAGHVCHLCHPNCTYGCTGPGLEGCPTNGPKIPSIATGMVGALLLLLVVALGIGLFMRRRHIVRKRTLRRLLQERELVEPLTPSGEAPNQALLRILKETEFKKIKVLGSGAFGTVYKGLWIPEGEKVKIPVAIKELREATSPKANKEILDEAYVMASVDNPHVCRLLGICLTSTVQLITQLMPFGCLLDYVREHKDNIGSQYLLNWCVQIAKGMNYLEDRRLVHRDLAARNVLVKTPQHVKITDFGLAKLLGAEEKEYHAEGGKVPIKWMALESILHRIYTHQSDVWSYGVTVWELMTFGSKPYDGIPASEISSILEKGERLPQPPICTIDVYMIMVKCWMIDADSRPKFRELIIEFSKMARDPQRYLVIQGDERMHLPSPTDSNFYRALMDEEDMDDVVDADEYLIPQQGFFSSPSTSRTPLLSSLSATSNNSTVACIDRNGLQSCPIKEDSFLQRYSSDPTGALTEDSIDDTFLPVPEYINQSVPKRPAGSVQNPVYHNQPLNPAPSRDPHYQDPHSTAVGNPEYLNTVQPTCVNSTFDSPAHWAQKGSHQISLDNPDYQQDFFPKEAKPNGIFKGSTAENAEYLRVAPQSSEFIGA
Sequence of Serine/threonine-protein kinase 16 (Homo sapiens) (O75716 whole entry): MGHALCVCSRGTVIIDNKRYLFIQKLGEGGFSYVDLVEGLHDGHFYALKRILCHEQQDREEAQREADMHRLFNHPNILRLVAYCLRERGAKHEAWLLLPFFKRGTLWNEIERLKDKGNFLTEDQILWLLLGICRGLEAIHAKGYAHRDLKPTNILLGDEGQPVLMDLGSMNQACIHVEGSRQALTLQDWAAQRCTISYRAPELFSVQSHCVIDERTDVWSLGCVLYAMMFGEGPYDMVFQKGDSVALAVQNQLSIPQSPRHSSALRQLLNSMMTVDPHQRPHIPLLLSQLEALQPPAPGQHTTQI
Sequence of Serine/threonine-protein kinase N2 (Homo sapiens) (Q16513 whole entry, looked up): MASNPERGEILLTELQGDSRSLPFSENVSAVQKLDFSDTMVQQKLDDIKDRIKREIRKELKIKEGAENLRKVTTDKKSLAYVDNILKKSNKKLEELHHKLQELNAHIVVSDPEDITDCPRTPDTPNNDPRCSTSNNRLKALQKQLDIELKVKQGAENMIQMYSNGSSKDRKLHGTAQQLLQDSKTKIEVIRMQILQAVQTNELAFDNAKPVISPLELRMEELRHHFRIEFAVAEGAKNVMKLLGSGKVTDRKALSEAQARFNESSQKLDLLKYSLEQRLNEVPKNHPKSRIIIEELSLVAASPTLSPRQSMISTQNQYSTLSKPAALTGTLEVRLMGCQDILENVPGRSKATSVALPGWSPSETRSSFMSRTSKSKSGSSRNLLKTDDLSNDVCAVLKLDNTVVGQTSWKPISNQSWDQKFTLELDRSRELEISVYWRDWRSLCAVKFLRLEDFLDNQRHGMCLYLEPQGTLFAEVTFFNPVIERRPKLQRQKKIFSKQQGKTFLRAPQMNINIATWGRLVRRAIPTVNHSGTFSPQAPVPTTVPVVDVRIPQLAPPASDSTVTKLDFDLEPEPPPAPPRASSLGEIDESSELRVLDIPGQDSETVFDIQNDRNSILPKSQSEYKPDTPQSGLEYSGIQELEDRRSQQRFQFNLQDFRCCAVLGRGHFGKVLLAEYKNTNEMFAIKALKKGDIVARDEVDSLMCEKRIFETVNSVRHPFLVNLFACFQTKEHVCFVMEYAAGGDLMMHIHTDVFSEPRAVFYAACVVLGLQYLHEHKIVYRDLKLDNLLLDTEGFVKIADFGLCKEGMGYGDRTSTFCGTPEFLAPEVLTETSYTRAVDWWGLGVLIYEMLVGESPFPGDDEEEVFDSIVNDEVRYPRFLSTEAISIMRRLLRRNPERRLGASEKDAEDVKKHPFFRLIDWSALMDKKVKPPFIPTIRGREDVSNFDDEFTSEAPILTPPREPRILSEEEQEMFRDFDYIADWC
Sequence of Serine/threonine-protein kinase N1 (Homo sapiens) (Q16512 2-942 limits assumed): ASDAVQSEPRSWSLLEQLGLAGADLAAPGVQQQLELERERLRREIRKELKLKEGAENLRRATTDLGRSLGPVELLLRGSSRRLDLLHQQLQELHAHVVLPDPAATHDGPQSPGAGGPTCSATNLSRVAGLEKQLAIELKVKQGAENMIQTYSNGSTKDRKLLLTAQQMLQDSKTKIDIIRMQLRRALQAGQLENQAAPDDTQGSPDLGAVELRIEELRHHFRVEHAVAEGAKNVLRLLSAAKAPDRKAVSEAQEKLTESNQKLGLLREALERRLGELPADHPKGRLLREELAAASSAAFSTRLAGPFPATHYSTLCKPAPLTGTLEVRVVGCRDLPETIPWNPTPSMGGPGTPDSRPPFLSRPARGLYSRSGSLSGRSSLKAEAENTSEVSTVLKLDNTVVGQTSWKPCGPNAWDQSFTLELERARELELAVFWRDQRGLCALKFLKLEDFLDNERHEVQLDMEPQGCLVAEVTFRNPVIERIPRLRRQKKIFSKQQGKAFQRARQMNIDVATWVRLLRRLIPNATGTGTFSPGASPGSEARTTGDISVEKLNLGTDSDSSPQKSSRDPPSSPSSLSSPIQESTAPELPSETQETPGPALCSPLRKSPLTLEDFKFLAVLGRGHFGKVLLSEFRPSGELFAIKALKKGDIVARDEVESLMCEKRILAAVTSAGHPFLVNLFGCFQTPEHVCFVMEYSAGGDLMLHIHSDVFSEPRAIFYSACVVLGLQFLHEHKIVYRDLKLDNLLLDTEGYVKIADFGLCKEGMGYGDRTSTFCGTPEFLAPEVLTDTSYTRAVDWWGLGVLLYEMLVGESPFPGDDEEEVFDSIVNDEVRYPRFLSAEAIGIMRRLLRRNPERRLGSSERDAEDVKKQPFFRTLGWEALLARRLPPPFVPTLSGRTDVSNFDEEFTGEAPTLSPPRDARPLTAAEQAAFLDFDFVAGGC
Sequence of Phosphatidylinositol 4,5-bisphosphate 3-kinase catalytic subunit alpha isoform (Homo sapiens), P42336 [E542K] (P42336 whole entry E542K, canonical isoform): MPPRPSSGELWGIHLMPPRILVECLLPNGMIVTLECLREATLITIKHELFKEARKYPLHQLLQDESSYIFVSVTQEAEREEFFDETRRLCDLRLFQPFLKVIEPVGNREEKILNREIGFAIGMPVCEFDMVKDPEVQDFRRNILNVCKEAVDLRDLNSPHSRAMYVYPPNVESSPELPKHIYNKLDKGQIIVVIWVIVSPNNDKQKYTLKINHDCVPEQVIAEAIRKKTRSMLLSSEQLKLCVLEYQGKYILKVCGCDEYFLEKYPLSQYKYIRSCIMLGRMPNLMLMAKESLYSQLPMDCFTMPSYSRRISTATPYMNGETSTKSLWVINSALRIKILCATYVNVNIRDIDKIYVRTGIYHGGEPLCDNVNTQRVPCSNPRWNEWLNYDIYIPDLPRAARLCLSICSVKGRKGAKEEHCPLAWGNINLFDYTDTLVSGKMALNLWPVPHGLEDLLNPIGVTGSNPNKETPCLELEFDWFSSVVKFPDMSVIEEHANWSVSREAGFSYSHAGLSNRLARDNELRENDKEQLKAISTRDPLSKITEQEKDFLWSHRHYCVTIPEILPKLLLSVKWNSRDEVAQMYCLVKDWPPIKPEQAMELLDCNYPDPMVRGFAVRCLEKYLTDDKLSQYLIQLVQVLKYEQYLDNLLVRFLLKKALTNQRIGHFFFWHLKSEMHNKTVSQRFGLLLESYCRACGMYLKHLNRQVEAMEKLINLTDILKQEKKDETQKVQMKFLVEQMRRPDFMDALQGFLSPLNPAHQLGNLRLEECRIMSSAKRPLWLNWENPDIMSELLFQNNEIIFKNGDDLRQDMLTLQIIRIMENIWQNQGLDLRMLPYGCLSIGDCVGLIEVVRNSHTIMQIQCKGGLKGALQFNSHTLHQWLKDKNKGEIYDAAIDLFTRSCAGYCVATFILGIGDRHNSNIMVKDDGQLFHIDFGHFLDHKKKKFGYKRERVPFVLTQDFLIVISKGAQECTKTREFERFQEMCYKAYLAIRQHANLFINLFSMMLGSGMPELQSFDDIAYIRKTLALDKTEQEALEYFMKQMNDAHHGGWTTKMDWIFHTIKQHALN
Sequence of Cyclin-dependent kinase 15 (Homo sapiens) (Q96Q40 whole entry, the tested form may be a part): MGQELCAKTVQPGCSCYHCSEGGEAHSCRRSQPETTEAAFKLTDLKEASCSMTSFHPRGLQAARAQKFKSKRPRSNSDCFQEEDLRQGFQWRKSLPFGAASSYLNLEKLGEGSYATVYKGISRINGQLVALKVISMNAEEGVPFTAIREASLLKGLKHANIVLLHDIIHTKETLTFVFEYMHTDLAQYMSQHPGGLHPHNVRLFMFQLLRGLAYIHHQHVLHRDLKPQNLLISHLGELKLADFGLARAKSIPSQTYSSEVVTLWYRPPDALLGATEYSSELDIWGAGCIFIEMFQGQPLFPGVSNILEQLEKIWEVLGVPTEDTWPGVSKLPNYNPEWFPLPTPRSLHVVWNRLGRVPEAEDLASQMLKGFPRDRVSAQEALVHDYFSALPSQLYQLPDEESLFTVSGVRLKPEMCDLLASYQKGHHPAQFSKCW

Row | SMILES | residual activity [1] | residual activity [2] | residual activity [3] | residual activity [4] | residual activity [5] | residual activity [6] | residual activity [7] | residual activity [8] | residual activity [9] | residual activity [10] | residual activity [11] | residual activity [12] | residual activity [13] | residual activity [14] | residual activity [15] | residual activity [16] | residual activity [17] | residual activity [18] | residual activity [19] | residual activity [20] | also measured
1 | CS(=O)(=O)NCC[C@H](NC(=O)c1cncc2c1cnn2-c1ccc(F)cc1)c1ccnc(S(C)(=O)=O)c1 [BI 9307] | 100% | 100% | 100% | 100% | 100% | 92% | 100% | 91% | 100% | 100% | 100% | 100% | 86% | 91% | 100% | 88% | 100% | 88% | 100% | 79% | residual activity [21]: 86%; residual activity [22]: 66%; residual activity [23]: 73%; residual activity [24]: 100%; residual activity [25]: 100%; residual activity [26]: 100%; residual activity [27]: 84%; residual activity [28]: 98%; residual activity [29]: 98%; residual activity [30]: 100%; residual activity [31]: 99%; residual activity [32]: 85%; residual activity [33]: 100%; residual activity [34]: 84%; residual activity [35]: 100%; residual activity [36]: 99%; inhibition [37]: 47.7%; inhibition [38]: -5.01%
2 | CS(=O)(=O)c1cc(C2(NC(=O)c3cncc4c3cnn4-c3ccc(F)cc3)CC2)ccn1 [BI 639667] | 100% | 100% | 76% | 100% | 100% | 100% | 75% | 100% | 93% | 55% | 48% | 75% | 43% | 100% | 88% | 100% | 97% | 85% | 100% | 100% | residual activity [21]: 93%; residual activity [22]: 80%; residual activity [23]: 66%; residual activity [24]: 100%; residual activity [25]: 100%; residual activity [26]: 100%; residual activity [27]: 100%; residual activity [28]: 81%; residual activity [29]: 70%; residual activity [30]: 100%; residual activity [31]: 93%; residual activity [32]: 97%; residual activity [33]: 90%; residual activity [34]: 89%; residual activity [35]: 100%; residual activity [36]: 100%; inhibition [37]: 13.5%; inhibition [38]: -5.91%
